From US11548888B2, “KRas G12C inhibitors” (Mirati Therapeutics, Inc., priority 2019, dated 2023) come the findings set out here.

The target of this test is T1, KRas G12C (Homo sapiens, UniProt P01116, G12C).
T1 construct: NCI-H358 cells (ATCC CRL-5807) express KRas G12C
T1 sequence (P01116 1-188 isoform P01116-2 G12C): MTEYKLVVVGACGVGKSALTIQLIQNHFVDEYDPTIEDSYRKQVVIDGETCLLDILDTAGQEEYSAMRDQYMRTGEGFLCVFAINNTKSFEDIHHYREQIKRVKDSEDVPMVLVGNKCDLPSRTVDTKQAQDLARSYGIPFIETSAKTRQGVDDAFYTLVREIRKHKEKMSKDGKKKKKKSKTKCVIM
The experiment in a line: Inhibition of KRas G12C-dependent cell growth: Phospho-ERK in NCI-H358 cells. The note with it: NCI-H358 cells expressing KRas G12C; Phospho-ERK (Thr202/Tyr204) normalized to GAPDH; 3 hours compound; 4 parameter fit. In kind it is cell-based. In short, it runs like this:
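NCI-H358 cells (KRas G12C) exposed to compounds for 3 h, 0.5% DMSO final. Fixed cells immunostained for pERK(Thr202/Tyr204) and GAPDH with infrared secondary antibodies. pERK normalized to GAPDH, expressed as percent of DMSO control; IC50 from 4-parameter dose-response fit.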
`C=C(F)C(=O)N1CCN(c2nc(OC[C@@H]3CCCN3C)nc3c(F)c(-c4cccc5cnn(C)c45)ncc23)C[C@@H]1CC#N` [Example 84]: the IC50 worked out at 765 nM. `C=CC(=O)N1CC2(CCN(c3nc(OC[C@@H]4CCCN4C)nc4c(F)c(-c5cccc6cccc(Cl)c56)ncc34)CC2)C1` [Example 85] displayed an IC50 of 519 nM.

`C=C(F)C(=O)N1CCN(c2nc(OC[C@@H]3CCCN3C)nc3c(F)c(-c4cccc5ccc(F)c(C)c45)ncc23)C[C@@H]1CC#N` [Example 86] came in with a half-maximal inhibitory concentration (IC50) of 14 nM.

The compound `C=C(F)C(=O)N1CCN(c2nc(OC[C@@H]3CCCN3C)nc3c(F)c(-c4ccccc4F)ncc23)C[C@@H]1CC#N` [Example 87] showed an IC50 of 4380 nM. Regarding `COC/C=C/C(=O)N1CCN(c2nc(OC[C@@H]3CCCN3C)nc3c(F)c(-c4cncc5cccc(Cl)c45)ncc23)C[C@@H]1CC#N` [Example 88], it took 77 nM to reach half-maximal inhibition (IC50). In turn, `CN1CCC[C@H]1COc1nc(N2CCN(C(=O)/C=C/CF)[C@@H](CC#N)C2)c2cnc(-c3cncc4cccc(Cl)c34)c(F)c2n1` [Example 90] displayed an IC50 of 26 nM. Then `C=C(F)C(=O)N1CCN(c2nc(N3CC(N(C)C)C3)nc3c(F)c(-c4cccc5cccc(Cl)c45)ncc23)C[C@@H]1CC#N` [Example 91], with 29 nM. In the case of `C=C(F)C(=O)N1CCN(c2nc(OC[C@@H]3CCCN3C)nc3c(F)c(-c4cccc5ccc(F)c(Cl)c45)ncc23)C[C@@H]1CC#N` [Example 92], the concentration for half-maximal inhibition (IC50) turned out to be 11 nM. Compared with the last compound, the IC50 is about 2.6-fold lower. Turning to `C=CC(=O)N1CCN(c2nc(OC[C@@H]3CCCN3C)nc3c(F)c(-c4cncc5cccc(Cl)c45)ncc23)CC1` [Example 93], the IC50 is 366 nM. This IC50 is about 33-fold higher than that of the compound before. Then `C=C(F)C(=O)N1CCN(c2nc(OC[C@@H]3CCCN3C)nc3c(F)c(-c4cc(O)cc5ccccc45)ncc23)C[C@@H]1CC#N` [Example 95], with 14 nM; and `C=CC(=O)N1CCN(c2nc(OC[C@@H]3CCCN3C)nc3c(F)c(-c4cncc5cccc(Cl)c45)ncc23)[C@@H](C)C1` [Example 96], with 200 nM; and `C=C(F)C(=O)N1CCN(c2nc(NC3CCN(C4CC4)CC3)nc3c(F)c(-c4cccc5cccc(Cl)c45)ncc23)C[C@@H]1CC#N` [Example 97], with 2520 nM. As to `C=CC(=O)N1CC2CC1CN2c1nc(OC[C@@H]2CCCN2C)nc2c(F)c(-c3cncc4cccc(Cl)c34)ncc12` (stereo partly shown) [Example 98], the IC50 was determined as 10000 nM. `C=C(F)C(=O)N1CCN(c2nc(OC[C@@H]3CCCN3C)nc3c(F)c(-c4c(C)ccc5cnn(C)c45)ncc23)C[C@@H]1CC#N` [Example 99] showed a half-inhibitory concentration (IC50) of 444 nM. `C=CC(=O)N1CCN(c2nc(OC[C@@H]3CCCN3C)nc3c(F)c(-c4ccccc4F)ncc23)[C@@H](C)C1` [Example 100] gave an IC50 of 10000 nM. Consider `C=C(F)C(=O)N1CCN(c2nc(OCC34CCCN3CCC4)nc3c(F)c(-c4cccc(F)c4C(F)(F)F)ncc23)C[C@@H]1CC#N` [Example 101], for which the IC50 worked out at 43 nM. For `C=CC(=O)N1CCN(c2nc(OCC34CCCN3CCC4)nc3c(F)c(-c4cccc5ccc(F)c(Cl)c45)ncc23)CC1` [Example 102], half-maximal inhibition (IC50) required 12 nM. As to `C=CC(=O)N1CCN(c2nc(OC[C@@H]3CCCN3C)nc3c(F)c(-c4nc(N)ccc4Cl)ncc23)CC1` [Example 103], it took 10000 nM to reach half-maximal inhibition (IC50). This IC50 is about 830-fold higher than that of the compound before. Turning to `C=C(F)C(=O)N1CCN(c2nc(OCCC(F)(F)F)nc3c(F)c(-c4cccc5ccc(F)c(Cl)c45)ncc23)C[C@@H]1CC#N` [Example 104], 699 nM corresponded to half-maximal inhibition (IC50).

On to `C=CC(=O)N1CC2CN(c3nc(OC[C@@H]4CCCN4C)nc4c(F)c(-c5cncc6cccc(Cl)c56)ncc34)CC2C1` (stereo partly shown) [Example 105], for which the IC50 worked out at 10000 nM. Then `C=C(F)C(=O)N1CCN(c2ncnc3c(F)c(-c4cccc5cccc(Cl)c45)ncc23)C[C@@H]1CC#N` [Example 106], with 1540 nM. Take `C=C(F)C(=O)N1CCN(c2nc(OC[C@@H]3CCCN3C)nc3c(F)c(-c4nc(N)cc5ccccc45)ncc23)C[C@@H]1CC#N` [Example 107]: inhibition was half-maximal at 156 nM (IC50). In turn, `C=CC(=O)N1CCN(c2ncnc3c(F)c(-c4cccc5cccc(Cl)c45)ncc23)C[C@@H]1CC#N` [Example 108] displayed a half-inhibitory concentration (IC50) of 37 nM. The compound `C=CC(=O)N1CCN(c2ncnc3c(F)c(-c4cccc5ccc(F)c(Cl)c45)ncc23)C[C@@H]1CC#N` [Example 109] registered an IC50 of 21 nM. This IC50 is about 1.8-fold lower than that of the compound before. Then `COC/C=C/C(=O)N1CCN(c2ncnc3c(F)c(-c4cccc5ccc(F)c(Cl)c45)ncc23)C[C@@H]1CC#N` [Example 110], with 725 nM; and `C=C(F)C(=O)N1CCN(c2ncnc3c(F)c(-c4cccc5cccc(C)c45)ncc23)C[C@@H]1CC#N` [Example 111], with 3920 nM. `N#CC[C@H]1CN(c2ncnc3c(F)c(-c4cccc5ccc(F)c(Cl)c45)ncc23)CCN1C(=O)/C=C/CF` [Example 112] had an IC50 of 218 nM. `C=C(F)C(=O)N1CCN(c2nc(OC[C@@H]3C[C@@H](OC)CN3C)nc3c(F)c(-c4cccc5ccc(F)c(Cl)c45)ncc23)C[C@@H]1CC#N` [Example 113] had an IC50 of 13 nM. `C=C(F)C(=O)N1CCN(c2nc(OCC34CCCN3CCC4)nc3c(F)c(-c4cccc5ccc(F)c(Cl)c45)ncc23)C[C@@H]1CC#N` [Example 114] yielded an IC50 of 2 nM. In the case of `N#CC[C@H]1CN(c2ncnc3c(F)c(-c4cccc5ccc(F)c(Cl)c45)ncc23)CCN1C(=O)/C=C/C(F)F` [Example 115], it took 76 nM to reach half-maximal inhibition (IC50). Against the preceding compound, the IC50 is about 38-fold higher. `C=C(F)C(=O)N1CCN(c2nc(OC[C@@H]3C[C@@H](F)CN3C(C)C)nc3c(F)c(-c4cccc5ccc(F)c(Cl)c45)ncc23)C[C@@H]1CC#N` [Example 116] displayed an IC50 of 31 nM.

`C=C(F)C(=O)N1CCN(c2nc(OC[C@@H]3C[C@@H](OC)CN3C(C)C)nc3c(F)c(-c4cccc5ccc(F)c(Cl)c45)ncc23)C[C@@H]1CC#N` [Example 117] gave an IC50 of 18 nM. `C=C(F)C(=O)N1CCN(c2nc(OC[C@@H]3CC(F)(F)CN3C(C)C)nc3c(F)c(-c4cccc5ccc(F)c(Cl)c45)ncc23)C[C@@H]1CC#N` [Example 118] had an IC50 of 329 nM.

For `C=CC(=O)N1CCN(c2nc(OC[C@@H]3CCCN3C)nc3c(F)c(-c4cccc5ccc(F)c(Cl)c45)ncc23)[C@@H](C)C1` [Example 119], 39 nM corresponded to half-maximal inhibition (IC50). In the case of `C=C(F)C(=O)N1CCN(c2nc(OCCNS(C)(=O)=O)nc3c(F)c(-c4cccc5ccc(F)c(Cl)c45)ncc23)C[C@@H]1CC#N` [Example 120], the IC50 came out at 976 nM. This IC50 is about 25-fold higher than that of the compound before.

In the case of `C=C(F)C(=O)N1CCN(c2nc(OC[C@@H]3CCCN3C(C)C)nc3c(F)c(-c4cccc5ccc(F)c(Cl)c45)ncc23)C[C@@H]1CC#N` [Example 121], it took 63 nM to reach half-maximal inhibition (IC50).

Take `C=CC(=O)N1CCN(c2nc(C)nc3c(F)c(-c4cccc5ccc(F)c(Cl)c45)ncc23)C[C@@H]1CC#N` [Example 122]: the half-maximal inhibitory concentration (IC50) was found to be 32 nM. On to `C=CC(=O)N1CCN(c2ncnc3c(F)c(-c4cccc5ccc(F)c(Cl)c45)ncc23)[C@@H](C)C1` [Example 123], for which it took 3960 nM to reach half-maximal inhibition (IC50).

For the compound `C=C(F)C(=O)N1CCN(c2nc(OCc3ccn[nH]3)nc3c(F)c(-c4cccc5ccc(F)c(Cl)c45)ncc23)C[C@@H]1CC#N` [Example 124], the half-maximal inhibitory concentration (IC50) was determined as 1770 nM. Then `C=C(F)C(=O)N1CCN(c2nc(OC[C@@H]3CCCN3C(C)C)nc3c(F)c(-c4cccc5cccc(Cl)c45)ncc23)C[C@@H]1CC#N` [Example 125], with 42 nM. `C=C(F)C(=O)N1CCN(c2nc(OC[C@@H]3C[C@@H](F)CN3C)nc3c(F)c(-c4cccc5ccc(F)c(Cl)c45)ncc23)C[C@@H]1CC#N` [Example 126] displayed an IC50 of 15 nM. This IC50 lies about 2.8-fold lower than the previous one. With `C=C(F)C(=O)N1CCN(c2nc(OCC3CN(C)C3)nc3c(F)c(-c4cccc5ccc(F)c(Cl)c45)ncc23)C[C@@H]1CC#N` [Example 127], the half-inhibitory concentration (IC50) was found to be 243 nM.

Take `C=C(F)C(=O)N1CCN(c2nc(OC[C@@H]3CCCN3CC)nc3c(F)c(-c4cccc5ccc(F)c(Cl)c45)ncc23)C[C@@H]1CC#N` [Example 128]: half-maximal inhibition (IC50) was put at 15 nM. Compound `C=C(F)C(=O)N1CCN(c2nc(OCCCN3C[C@@H]4C[C@H]3CO4)nc3c(F)c(-c4cccc5ccc(F)c(Cl)c45)ncc23)C[C@@H]1CC#N` [Example 129] showed a half-inhibitory concentration (IC50) of 73 nM. Compound `C=C(F)C(=O)N1CCN(c2nc(OCC3CCN3C(C)C)nc3c(F)c(-c4cccc5ccc(F)c(Cl)c45)ncc23)C[C@@H]1CC#N` (stereo partly shown) [Example 130] gave an IC50 of 26 nM. For the compound `C=CC(=O)N1C2CCC1CN(c1ncnc3c(F)c(-c4cccc5ccc(F)c(Cl)c45)ncc13)C2` [Example 131], inhibition was half-maximal at 10000 nM (IC50). The compound `C=C(F)C(=O)N1CCN(c2nc(OCCc3nccn3C)nc3c(F)c(-c4cccc5ccc(F)c(Cl)c45)ncc23)C[C@@H]1CC#N` [Example 132] registered a half-inhibitory concentration (IC50) of 145 nM. Against the preceding compound, the IC50 is about 69-fold lower. As to `C=CC(=O)N1CCN(c2ncnc3c(F)c(-c4cccc5ccc(F)c(Cl)c45)ncc23)[C@H](C)C1` [Example 133], the half-maximal inhibitory concentration (IC50) is 10000 nM. In turn, `C=CC(=O)N1CCN(c2ncnc3c(F)c(-c4cccc5ccc(F)c(Cl)c45)ncc23)CC1` [Example 134] displayed an IC50 of 10000 nM. `C=CC(=O)N1CCN(c2ncnc3c(F)c(-c4cccc5ccc(F)c(Cl)c45)ncc23)CC1C#N` (stereo not shown) [Example 135]: inhibition was half-maximal at 6050 nM (IC50). This IC50 is about 1.7-fold lower than that of the compound before.

Consider `C=CC(=O)N1CCN(c2nc(OC)nc3c(F)c(-c4cccc5ccc(F)c(Cl)c45)ncc23)C[C@@H]1CC#N` [Example 136], for which inhibition was half-maximal at 92 nM (IC50). Turning to `C=CC(=O)N1CCN(c2ncnc3c(F)c(-c4cccc5cccc(Cl)c45)ncc23)CC1` [Example 137], the IC50 came out at 3350 nM. Against the preceding compound, the IC50 is about 36-fold higher. In turn, `C=CC(=O)N1CCC2(C1)CN(c1ncnc3c(F)c(-c4cccc5ccc(F)c(Cl)c45)ncc13)C2` [Example 138] showed an IC50 of 7170 nM. As for `C=C(F)C(=O)N1CCN(c2nc(OCC3CCN3CC)nc3c(F)c(-c4cccc5ccc(F)c(Cl)c45)ncc23)C[C@@H]1CC#N` (stereo partly shown) [Example 139], the concentration for half-maximal inhibition (IC50) stood at 37 nM. Regarding `C=C(F)C(=O)N1CCN(c2nc(OC[C@@H]3CCCN3C3CCC3)nc3c(F)c(-c4cccc5ccc(F)c(Cl)c45)ncc23)C[C@@H]1CC#N` [Example 140], half-maximal inhibition (IC50) required 14 nM.

The term IC50 denotes the concentration that gives 50% inhibition.
